In the supplement of paper PMC11451515:

Test system: NOMO1
Assay: cell viability relative to DMSO control; higher = less cytotoxic
Conditions: 48 h
Method in brief: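 Viability, reported as a per-plate percentage of DMSO wells with cell-free wells as background, came from CellTiter-Glo One luminescence. Reading took place after 48 h at 37°C. Before that, NOMO1 or SEM (500 cells/well) or P12-Ichikawa (1000 cells/well) leukemia cells, adapted for at least four passages in each medium, were seeded in 1536-well plates (5 μl) and pin-dosed with library compounds in DMSO, 47 μM to 0.79 nM over 11 threefold points.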

[1] = HPLM + 10% dialyzed FBS, 0.000781 µM
[2] = HPLM + 10% dialyzed FBS, 0.00234 µM
[3] = HPLM + 10% dialyzed FBS, 0.00702 µM
[4] = HPLM + 10% dialyzed FBS, 0.0211 µM
[5] = HPLM + 10% dialyzed FBS, 0.0632 µM
[6] = HPLM + 10% dialyzed FBS, 0.19 µM
[7] = HPLM + 10% dialyzed FBS, 0.569 µM
[8] = HPLM + 10% dialyzed FBS, 1.71 µM
[9] = HPLM + 10% dialyzed FBS, 5.12 µM
[10] = HPLM + 10% dialyzed FBS, 15.4 µM
[11] = HPLM + 10% dialyzed FBS, 46.1 µM
[12] = RPMI 5 mM glucose + 10% FBS, 0.000781 µM
[13] = RPMI 5 mM glucose + 10% FBS, 0.00234 µM
[14] = RPMI 5 mM glucose + 10% FBS, 0.00702 µM
[15] = RPMI 5 mM glucose + 10% FBS, 0.0211 µM
[16] = RPMI 5 mM glucose + 10% FBS, 0.0632 µM
[17] = RPMI 5 mM glucose + 10% FBS, 0.19 µM
[18] = RPMI 5 mM glucose + 10% FBS, 0.569 µM
[19] = RPMI 5 mM glucose + 10% FBS, 1.71 µM
[20] = RPMI 5 mM glucose + 10% FBS, 5.12 µM
[21] = RPMI 5 mM glucose + 10% FBS, 15.4 µM
[22] = RPMI 5 mM glucose + 10% FBS, 46.1 µM
[23] = RPMI 5 mM glucose + 10% dialyzed FBS, 0.000781 µM
[24] = RPMI 5 mM glucose + 10% dialyzed FBS, 0.00234 µM
[25] = RPMI 5 mM glucose + 10% dialyzed FBS, 0.00702 µM
[26] = RPMI 5 mM glucose + 10% dialyzed FBS, 0.0211 µM
[27] = RPMI 5 mM glucose + 10% dialyzed FBS, 0.0632 µM
[28] = RPMI 5 mM glucose + 10% dialyzed FBS, 0.19 µM
[29] = RPMI 5 mM glucose + 10% dialyzed FBS, 0.569 µM
[30] = RPMI 5 mM glucose + 10% dialyzed FBS, 1.71 µM
[31] = RPMI 5 mM glucose + 10% dialyzed FBS, 5.12 µM
[32] = RPMI 5 mM glucose + 10% dialyzed FBS, 15.4 µM
[33] = RPMI 5 mM glucose + 10% dialyzed FBS, 46.1 µM

SMILES	cell viability [1] [%]	cell viability [2] [%]	cell viability [3] [%]	cell viability [4] [%]	cell viability [5] [%]	cell viability [6] [%]	cell viability [7] [%]	cell viability [8] [%]	cell viability [9] [%]	cell viability [10] [%]	cell viability [11] [%]	cell viability [12] [%]	cell viability [13] [%]	cell viability [14] [%]	cell viability [15] [%]	cell viability [16] [%]	cell viability [17] [%]	cell viability [18] [%]	cell viability [19] [%]	cell viability [20] [%]	cell viability [21] [%]	cell viability [22] [%]	cell viability [23] [%]	cell viability [24] [%]	cell viability [25] [%]	cell viability [26] [%]	cell viability [27] [%]	cell viability [28] [%]	cell viability [29] [%]	cell viability [30] [%]	cell viability [31] [%]	cell viability [32] [%]	cell viability [33] [%]
COc1ccc(-c2ccc3c(N4CCOC[C@@H]4C)nc(N4CCOC[C@@H]4C)nc3n2)cc1CO	93.6	76.5	93.1	82.1	74.5	64.6	58.7	55.1	48	9.86	3.58	103	75.7	94	95.6	90.4	84.5	75.1	72.4	63.4	41.7	4.25	102	63.9	98.6	86	85.9	69	64	70.5	57.4	52.4	5.83
Cc1cnc(-c2cc(N3CCN(C(=O)CC[S+](C)(=O)[O-])CC3)ncc2Cl)c(C)c1	96.3	125	132	126	132	134	127	129	137	134	191	–	–	–	–	–	–	–	–	–	–	–	–	–	–	–	–	–	–	–	–	–	–
O=C(NC[C@H](O)CO)c1ccncc1Nc1ccc(I)cc1F	94.7	98.5	90	93	82.2	60.9	53.2	56	49.2	38.6	40.4	103	101	111	90.8	65.2	61.7	52.6	51.6	47.6	37.9	6.49	88.3	96.1	93.6	81.1	72.2	61.9	52	49.1	41.6	38.9	39.3
C[C@]1(c2nc3c(C(N)=O)cccc3[nH]2)CCCN1	70.8	69.6	84	82.2	80.8	88.9	84.2	74.6	67.1	93	31.4	65.2	80.4	72.5	79.5	76.3	76.3	85.6	72	68.9	81.3	23	62.8	77	76.8	82.3	87.5	93.7	89.6	90.6	73.1	77.4	26.1
CN1CCN(c2ccc([N+](=O)[O-])c3no[n+]([O-])c23)CC1	86.5	101	110	114	107	111	100	105	116	86.6	56.6	88.4	99.6	87.6	93.3	92.9	103	89.5	85.1	94.1	83.9	68.1	81.5	78.1	91.3	85.6	96.1	95.6	92.5	95.9	86.6	87.4	72.4
NC/1=N/C2=C([NH]C=N2)C(=S)N1	107	121	121	133	131	115	122	137	126	145	35.1	111	119	123	119	113	115	117	120	109	101	27.6	–	–	–	–	–	–	–	–	–	–	–
Cc1cc2c(F)c(Oc3ncnn4cc(OC[C@@H](C)O)c(C)c34)ccc2[nH]1	107	87.6	103	103	97.5	90.4	99.2	101	98.4	88.9	69.6	86.5	103	101	105	98.2	98.1	94.1	88.6	88.8	97	83.6	88.5	104	102	92	90.3	100	98.7	84.9	109	79.8	67.1
Cc1cccc(Nc2nc(-c3ccncc3)cs2)c1	96.3	138	121	142	137	140	111	145	142	136	134	–	–	–	–	–	–	–	–	–	–	–	122	121	128	123	125	135	134	129	128	134	107
C[C@@]12C[C@@]3(O)O[C@@H](O1)[C@]1(COC(=O)c4ccccc4)[C@H]3C[C@@]12O[C@@H]1O[C@H](CO)[C@@H](O)[C@H](O)[C@H]1O	94.6	112	99.3	126	124	130	137	113	100	71.1	45.5	100	95.2	109	103	114	105	105	103	98.3	109	112	103	91.2	94.9	103	101	114	93.7	107	114	110	91
CC(C)C[C@@H](C=O)NC(=O)[C@H](CC(C)C)NC(=O)[C@H](CC(C)C)NC(=O)OCc1ccccc1	–	–	–	–	–	–	–	–	–	–	–	115	119	130	143	134	128	78.1	42.1	10.2	8.45	7.38	–	–	–	–	–	–	–	–	–	–	–
C=C(C)[C@H]1Cc2c(ccc3c2O[C@@H]2COc4cc(OC)c(OC)cc4[C@@H]2C3=O)O1	103	102	120	110	124	116	107	89.2	52.6	37.3	28.8	105	118	105	106	109	102	102	102	63.8	23.9	20.4	99.3	101	98.4	99.8	104	104	87.8	98.7	81.5	29.5	24.1
CC(C)C1=C(O)C=C(O)C(=C1)C/2=N/NC(=O)N2C3=CC4=C(C=C3)[N](C)C=C4	134	116	123	130	118	29.5	23.4	23.2	20.7	21	15.8	106	101	107	112	105	19.6	16.3	15.3	16.8	16.3	13.3	120	117	130	118	95.9	32.6	22.3	19.6	20	16.9	17.6
O=c1[nH]c2ccccc2n1C1CCN(Cc2ccc(-c3nc4cc5nc[nH]c5cc4nc3-c3ccccc3)cc2)CC1	95.9	126	114	126	133	130	108	97	90.7	103	95.9	101	119	108	113	123	113	115	107	111	121	118	98.8	104	109	105	116	116	103	107	97.9	115	102
CN(C)C1=CC=C(C=C1)C(C2=CC=C(C=C2)N(C)C)=C/3\C=C/C(/C=C3)=[N+](C)C	102	114	136	132	103	26.6	9.97	4.17	4.13	1.55	0.245	113	98.4	101	113	107	27.2	6.73	2.46	2.87	0.606	-0.00921	112	101	110	100	96.9	33.1	11.3	5.56	5.09	1.49	0.371
OC1=CC2=C(C(=C1)O)C(=O)\C=C(/O2)C3=CC=CC=C3	106	106	103	116	109	116	108	118	121	93.6	20.2	101	97.8	92.1	97.5	100	108	92.7	96.1	101	105	15.6	91.9	103	106	104	115	102	115	112	98.9	98.3	27.6
C/C=C(/C)C(=O)O[C@H]1C(C)=C[C@]23C(=O)[C@@H](C=C(CO)[C@@H](O)[C@]12O)[C@H]1[C@@H](C[C@H]3C)C1(C)C	119	127	114	112	93.5	69	66.4	64.7	60.6	61.5	39.3	121	128	121	108	96	79.1	67.8	65.9	66.3	69.4	51.7	–	–	–	–	–	–	–	–	–	–	–
CCC(C)(Oc1ccc(C2(c3ccc(OC(C)(CC)C(=O)O)cc3)CCCCC2)cc1)C(=O)O (centres undefined)	89.3	107	89.4	108	118	101	93.8	124	102	85.1	99.4	104	101	95.5	99.2	102	89.4	97.6	97.7	92.8	84	84.3	100	94.4	111	96.1	99.8	94	107	103	87	93.9	101
